Data reported in article PMC8294059, “Identification and Immune Assessment of T Cell Epitopes in Five Plasmodium falciparum Blood Stage Antigens to Facilitate Vaccine Candidate Selection and Optimization” (Frontiers in Immunology, 2021).
Like-named read-outs stand apart in the source and are kept apart here. Where a SMILES comes first, the peptide text is derived from it.

Target: HLA-A*0201 (Homo sapiens, UniProt P04439, D140Y/D185E/D98H/E176V/E277Q/G131W/G231S/I119V/I121R/I166T/I218V/L300P/L318F/N151K/N90K/P208A/P217A/Q86G/Q94H/R138H/R169H/T345S)
Assay: In vitro class I HLA binding assay (fluorescence polarization competition)
Details: allele A*0201
Procedure: A cell-free class I HLA binding assay that allows for in vitro quantification of peptide-HLA binding affinity in a competition format was used. In this assay, a fluorescently labeled, high binding, control peptide is loaded onto 384-well ½-area plates along with unlabeled experimental peptides. To remove endogenous peptides and render the HLA A and B molecules receptive to binding, HLA is heated at 53°C for 15 minutes and immediately added to the assay. The mixture is then allowed to stand for three days. Once the mixture has reached steady equilibrium (at 72 hours), displacement of the high binding control peptide is measured through fluorescence polarization. Binding of experimental peptides is expressed as the percent inhibition of the labeled control peptide (experimental fluorescence / control fluorescence, multiplied by 100). The percent inhibition values for each experimental peptide (across a range of molar concentrations) are used to calculate the concentration which inhibits 50% of the labeled control peptide’s specific binding. This value is referred to as the peptide’s IC50.

[1] = fluorescence polarization competition, read-out: IC50 (nM), in vitro HLA binding affinity
[2] = cell-free competition, fluorescence polarization at 72 hours, Non-binder = no dose-dependent inhibition, read-out: IC50

Row | Compound | IC50 [1] [nM] | IC50 [2] [nM]
1 | CC[C@H](C)[C@H](NC(=O)[C@H](CCSC)NC(=O)[C@@H](N)CO)C(=O)N[C@@H](CCCCN)C(=O)N[C@@H](CO)C(=O)N[C@@H](C)C(=O)N[C@@H](Cc1ccccc1)C(=O)N[C@@H](CC(C)C)C(=O)N1CCC[C@H]1C(=O)N[C@H](C(=O)O)[C@@H](C)O [AMA1_373] (H-SMIKSAFLPT-OH) | 12500 | –
2 | CC(C)C[C@H](NC(=O)[C@@H](N)Cc1ccccc1)C(=O)N1CCC[C@H]1C(=O)N[C@H](C(=O)NCC(=O)N[C@@H](C)C(=O)N[C@@H](Cc1ccccc1)C(=O)N[C@@H](CCCCN)C(=O)N[C@@H](C)C(=O)O)[C@@H](C)O [AMA1_379] (H-FLPTGAFKA-OH) | 1390 | –
3 | CC[C@H](C)[C@H](NC(=O)[C@H](Cc1ccc(O)cc1)NC(=O)[C@H](CO)NC(=O)[C@H](CO)NC(=O)[C@H](CC(N)=O)NC(=O)[C@H](CC(N)=O)NC(=O)[C@@H](NC(=O)[C@H](CC(C)C)NC(=O)[C@@H](N)CS)[C@@H](C)CC)C(=O)O [AMA1_418] (H-CLINNSSYI-OH) | 3820 | –
4 | CC[C@H](C)[C@H](NC(=O)[C@@H](N)Cc1ccccc1)C(=O)N[C@@H](CO)C(=O)N[C@@H](CC(=O)O)C(=O)N[C@@H](CC(=O)O)C(=O)N[C@@H](CCCCN)C(=O)N[C@@H](CC(=O)O)C(=O)N[C@@H](CO)C(=O)N[C@@H](CC(C)C)C(=O)O [AMA1_480] (H-FISDDKDSL-OH) | 336000 | –
5 | CC[C@H](C)[C@H](NC(=O)[C@@H](NC(=O)[C@H](C)NC(=O)[C@H](CC(C)C)NC(=O)[C@@H](NC(=O)[C@H](C)N)C(C)C)[C@@H](C)O)C(=O)N[C@@H](CC(C)C)C(=O)N[C@@H](CCSC)C(=O)N[C@H](C(=O)O)C(C)C [AMA1_556] (H-AVLATILMV-OH) | 23600 | –
6 | CC(C)C[C@H](NC(=O)[C@H](Cc1ccccc1)NC(=O)[C@H](Cc1ccccc1)NC(=O)[C@H](Cc1ccc(O)cc1)NC(=O)[C@H](CCC(N)=O)NC(=O)[C@@H](NC(=O)CNC(=O)[C@H](CC(C)C)NC(=O)[C@@H](N)CCCCN)C(C)C)C(=O)O [CYRPA_220] (H-KLGVQYFFL-OH) | 805 | –
7 | CC[C@H](C)[C@H](NC(=O)[C@H](CC(N)=O)NC(=O)[C@H](CC(=O)O)NC(=O)CNC(=O)[C@@H](NC(=O)[C@@H](N)Cc1ccc(O)cc1)C(C)C)C(=O)N[C@@H](CC(N)=O)C(=O)N[C@@H](CC(N)=O)C(=O)N[C@H](C(=O)O)C(C)C [CYRPA_242] (H-YVGDNINNV-OH) | 1820 | –
8 | CC[C@H](C)[C@H](NC(=O)[C@H](CO)NC(=O)[C@H](CC(N)=O)NC(=O)[C@H](CCC(=O)O)NC(=O)[C@H](CC(N)=O)NC(=O)[C@H](CC(N)=O)NC(=O)[C@H](Cc1ccccc1)NC(=O)[C@H](Cc1ccccc1)NC(=O)[C@@H](NC(=O)[C@@H](N)Cc1ccc(O)cc1)[C@@H](C)CC)C(=O)O [CYRPA_304] (H-YIFFNNENSI-OH) | 2830 | –
9 | CC[C@H](C)[C@H](NC(=O)[C@H](CC(C)C)NC(=O)[C@@H](N)CO)C(=O)N[C@@H](CCCCN)C(=O)N[C@@H](CCC(N)=O)C(=O)N[C@@H](CC(N)=O)C(=O)N[C@@H](CCCCN)C(=O)N[C@@H](Cc1ccc(O)cc1)C(=O)N[C@H](C(=O)O)C(C)C [EBA175_0116] (H-SLIKQNKYV-OH) | – | 29900
10 | CC[C@H](C)[C@H](NC(=O)[C@@H](NC(=O)[C@H](CC(N)=O)NC(=O)[C@H](CC(=O)O)NC(=O)[C@H](CC(N)=O)NC(=O)CNC(=O)[C@H](CC(N)=O)NC(=O)[C@H](CC(C)C)NC(=O)[C@@H](NC(=O)[C@@H](N)CO)C(C)C)[C@@H](C)O)C(=O)O [EBA175_0436] (H-SVLNGNDNTI-OH) | – | 640000
11 | CC[C@H](C)[C@H](NC(=O)[C@@H](NC(=O)[C@H](CC(N)=O)NC(=O)[C@H](CC(=O)O)NC(=O)[C@H](CC(N)=O)NC(=O)CNC(=O)[C@H](CC(N)=O)NC(=O)[C@H](CC(C)C)NC(=O)[C@@H](N)C(C)C)[C@@H](C)O)C(=O)O [EBA175_0437] (H-VLNGNDNTI-OH) | – | 7310
12 | CC[C@H](C)[C@H](NC(=O)[C@H](CO)NC(=O)[C@H](CCCCN)NC(=O)[C@H](Cc1ccccc1)NC(=O)[C@H](CCC(=O)O)NC(=O)[C@H](CO)NC(=O)[C@H](Cc1ccc(O)cc1)NC(=O)[C@H](CCSC)NC(=O)[C@@H](N)CCCCN)C(=O)O [EBA175_0697] (H-KMYSEFKSI-OH) | – | 1020
13 | CC(C)C[C@H](NC(=O)[C@H](CC(N)=O)NC(=O)[C@H](CC(=O)O)NC(=O)[C@@H](NC(=O)[C@@H](NC(=O)[C@H](CCC(=O)O)NC(=O)[C@H](Cc1ccccc1)NC(=O)[C@H](CC(C)C)NC(=O)[C@@H](N)Cc1ccccc1)C(C)C)[C@@H](C)O)C(=O)O [EBA175_1461] (H-FLFEVTDNL-OH) | – | 269
14 | CC(C)C[C@H](NC(=O)CNC(=O)[C@H](CC(=O)O)NC(=O)[C@H](CC(N)=O)NC(=O)[C@@H](NC(=O)[C@H](CC(N)=O)NC(=O)[C@@H](NC(=O)[C@H](CC(N)=O)NC(=O)[C@H](CC(C)C)NC(=O)[C@@H](N)Cc1ccc(O)cc1)[C@@H](C)O)C(C)C)C(=O)O [RH5_86] (H-YLNTNVNDGL-OH) | 2830 | –
15 | CC(C)C[C@H](NC(=O)[C@H](CCC(=O)O)NC(=O)[C@H](CCCCN)NC(=O)[C@H](Cc1ccccc1)NC(=O)[C@H](Cc1c[nH]cn1)NC(=O)[C@H](Cc1ccc(O)cc1)NC(=O)[C@H](CCC(N)=O)NC(=O)[C@H](CC(C)C)NC(=O)[C@@H](N)Cc1ccccc1)C(=O)O [RH5_144] (H-FLQYHFKEL-OH) | 14600 | –
16 | CC[C@H](C)[C@H](NC(=O)[C@@H](N)CCCCN)C(=O)N[C@@H](CC(N)=O)C(=O)N[C@@H](CCC(=O)O)C(=O)N[C@H](C(=O)N[C@@H](Cc1ccc(O)cc1)C(=O)N[C@@H](CC(=O)O)C(=O)N[C@@H](CCCCN)C(=O)N[C@H](C(=O)O)C(C)C)[C@@H](C)O [RH5_212] (H-KINETYDKV-OH) | 10100 | –
17 | CC[C@H](C)[C@H](NC(=O)[C@H](CC(C)C)NC(=O)[C@H](CCCCN)NC(=O)[C@H](Cc1c[nH]cn1)NC(=O)[C@@H](NC(=O)[C@@H](N)Cc1ccc(O)cc1)[C@@H](C)CC)C(=O)N[C@@H](CC(C)C)C(=O)N[C@@H](CO)C(=O)N[C@H](C(=O)O)C(C)C [RH5_363] (H-YIHKLILSV-OH) | 1150 | –
18 | CC[C@H](C)[C@H](NC(=O)[C@H](Cc1ccccc1)NC(=O)[C@H](CCCCN)NC(=O)[C@@H](NC(=O)[C@@H](NC(=O)[C@H](CC(=O)O)NC(=O)[C@@H](NC(=O)[C@H](Cc1ccc(O)cc1)NC(=O)[C@@H](NC(=O)[C@@H](N)Cc1ccc(O)cc1)[C@@H](C)CC)[C@@H](C)CC)[C@@H](C)O)[C@@H](C)CC)C(=O)O [RH5_404] (H-YIYIDTIKFI-OH) | 53100 | –
19 | CC[C@H](C)[C@H](N)C(=O)N[C@@H](CC(C)C)C(=O)N[C@@H](CC(=O)O)C(=O)N[C@@H](CCSC)C(=O)N[C@@H](CO)C(=O)N[C@@H](CC(N)=O)C(=O)N[C@@H](CCC(=O)O)C(=O)N[C@@H](Cc1ccc(O)cc1)C(=O)N[C@@H](CO)C(=O)N[C@@H](CC(C)C)C(=O)O [RH5_459] (H-ILDMSNEYSL-OH) | 6870 | –
20 | CC[C@H](C)[C@H](NC(=O)[C@H](Cc1ccccc1)NC(=O)[C@H](CC(C)C)NC(=O)[C@@H](N)CO)C(=O)N[C@H](C(=O)N[C@@H](CO)C(=O)N[C@@H](CC(=O)O)C(=O)N[C@@H](Cc1c[nH]cn1)C(=O)N[C@@H](CC(C)C)C(=O)O)[C@@H](C)O [RH5_467] (H-SLFITSDHL-OH) | 7120 | –
21 | CSCC[C@H](NC(=O)[C@H](CCC(N)=O)NC(=O)[C@@H](N)CCCNC(=N)N)C(=O)N[C@@H](CC(C)C)C(=O)N[C@@H](Cc1ccc(O)cc1)C(=O)N[C@@H](CC(N)=O)C(=O)N[C@H](C(=O)N[C@@H](Cc1ccccc1)C(=O)N[C@@H](Cc1ccc(O)cc1)C(=O)N[C@@H](CO)C(=O)O)[C@@H](C)O [RH5_476] (H-RQMLYNTFYS-OH) | 319000 | –
22 | CC[C@H](C)[C@H](NC(=O)[C@H](CC(N)=O)NC(=O)[C@H](CC(N)=O)NC(=O)[C@H](CC(C)C)NC(=O)[C@@H](N)Cc1c[nH]cn1)C(=O)N[C@@H](Cc1ccccc1)C(=O)N[C@@H](Cc1c[nH]cn1)C(=O)N[C@@H](Cc1c[nH]cn1)C(=O)N[C@@H](CC(C)C)C(=O)O [RH5_489] (H-HLNNIFHHL-OH) | 225 | –
23 | CC[C@H](C)[C@H](NC(=O)[C@H](CC(C)C)NC(=O)[C@H](Cc1c[nH]cn1)NC(=O)[C@H](Cc1c[nH]cn1)NC(=O)[C@H](Cc1ccccc1)NC(=O)[C@@H](NC(=O)[C@@H](N)CC(N)=O)[C@@H](C)CC)C(=O)N[C@@H](Cc1ccc(O)cc1)C(=O)N[C@H](C(=O)O)C(C)C [RH5_492] (H-NIFHHLIYV-OH) | 2290 | –
24 | CC(C)C[C@H](NC(=O)[C@H](CO)NC(=O)[C@H](Cc1ccccc1)NC(=O)[C@@H](NC(=O)[C@H](CC(C)C)NC(=O)[C@@H](N)CCCCN)[C@@H](C)O)C(=O)N[C@@H](CC(=O)O)C(=O)N[C@@H](Cc1c[nH]cn1)C(=O)N[C@@H](CCCNC(=N)N)C(=O)N[C@H](C(=O)O)C(C)C [RIPR_0035] (H-KLTFSLDHRV-OH) | 8880 | –
25 | CC[C@H](C)[C@H](NC(=O)[C@H](CO)NC(=O)[C@H](C)NC(=O)[C@H](CC(=O)O)NC(=O)[C@H](CC(=O)O)NC(=O)[C@H](CC(N)=O)NC(=O)[C@H](Cc1ccc(O)cc1)NC(=O)[C@H](CCC(N)=O)NC(=O)[C@@H](N)Cc1ccccc1)C(=O)O [RIPR_0991] (H-FQYNDDASI-OH) | 275 | –
26 | CC[C@H](C)[C@H](NC(=O)[C@H](CCCCN)NC(=O)[C@H](Cc1c[nH]c2ccccc12)NC(=O)[C@@H](NC(=O)[C@@H](NC(=O)[C@H](CCC(N)=O)NC(=O)[C@H](CC(N)=O)NC(=O)[C@H](Cc1ccc(O)cc1)NC(=O)[C@@H](NC(=O)[C@@H](N)Cc1ccc(O)cc1)[C@@H](C)CC)[C@@H](C)CC)[C@@H](C)CC)C(=O)O [RIPR_1011] (H-YIYNQIIWKI-OH) | 1950 | –
